Experimental data from patent US8383647B2, “Quinoline derivative” (Takeda Pharmaceutical Company Limited, priority 2009, dated 2013).
Structures can show the parent of a compound that is named as a salt.

Key:
rat SLC-1 = rat SLC-1 (Rattus norvegicus, UniProt P97639); assay: MCH receptor antagonistic activity (inhibitory activity, Experimental Example 1); format: biochemical
human SLC-1 = human SLC-1 (Homo sapiens, UniProt Q99705); assay: as above; format: biochemical
Chain of human SLC-1 (Q99705 whole entry): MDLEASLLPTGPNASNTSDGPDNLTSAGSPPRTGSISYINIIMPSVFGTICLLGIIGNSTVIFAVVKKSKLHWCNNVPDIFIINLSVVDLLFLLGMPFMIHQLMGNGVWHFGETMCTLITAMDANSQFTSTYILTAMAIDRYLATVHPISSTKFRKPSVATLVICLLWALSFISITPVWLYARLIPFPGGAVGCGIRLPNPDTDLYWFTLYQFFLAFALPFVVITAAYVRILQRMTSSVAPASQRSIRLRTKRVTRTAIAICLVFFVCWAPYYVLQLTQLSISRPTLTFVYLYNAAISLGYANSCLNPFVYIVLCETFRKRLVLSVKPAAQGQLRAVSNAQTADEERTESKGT

Chain of rat SLC-1 (P97639 whole entry): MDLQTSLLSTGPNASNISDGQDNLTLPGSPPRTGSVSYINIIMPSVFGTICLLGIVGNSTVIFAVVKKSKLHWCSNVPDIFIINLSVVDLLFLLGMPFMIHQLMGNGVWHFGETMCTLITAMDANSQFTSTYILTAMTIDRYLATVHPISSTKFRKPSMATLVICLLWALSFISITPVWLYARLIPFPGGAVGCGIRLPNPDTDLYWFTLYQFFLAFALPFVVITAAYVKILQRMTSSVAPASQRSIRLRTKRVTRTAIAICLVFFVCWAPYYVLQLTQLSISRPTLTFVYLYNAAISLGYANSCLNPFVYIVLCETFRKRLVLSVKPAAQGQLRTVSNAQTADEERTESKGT

Compound	melting point [°C]	IC50 (rat SLC-1) [nM]	IC50 (human SLC-1) [nM]
COC(C)(C)CNCc1cnc2c(C)c(NC(=O)c3ccc(OC[C@@H]4CCCO4)cc3)ccc2c1 (as salt: hydrochloride) [Example 30, N-(3-{[(2-methoxy-2-methylpropyl)amino]methyl}-8-methylquinolin-7-yl)-4-[(2S)-tetrahydrofuran-2-ylmethoxy]benzamide dihydrochloride]	235 to 237		
Cc1c(NC(=O)c2ccc(OC[C@@H]3CCCO3)cc2)ccc2cc(CNCC3(O)CCCCC3)cnc12 (as salt: hydrochloride) [Example 41, N-[3-({[(1-hydroxycyclohexyl)methyl]amino}methyl)-8-methylquinolin-7-yl]-4-[(2S)-tetrahydrofuran-2-ylmethoxy]benzamide dihydrochloride]	242 to 244		
Cc1c(NC(=O)c2ccc(OCC3CCOC3)cc2)ccc2cc(CNCC(C)C)cnc12 (single isomer, unassigned) [Example 61, N-(8-methyl-3-{[(2-methylpropyl)amino]methyl}quinolin-7-yl)-4-(tetrahydrofuran-3-ylmethoxy)benzamide]		2.1	2.2
Cc1c(NC(=O)c2ccc(OCC3CCCO3)cc2)ccc2cc(CNCC(C)(C)O)cnc12 (stereo not shown) [Example 1, N-(3-{[(2-hydroxy-2-methylpropyl)amino]methyl}-8-methylquinolin-7-yl)-4-(tetrahydrofuran-2-ylmethoxy)benzamide]	138		
Cc1c(NC(=O)c2ccc(OCC3CCCO3)cc2)ccc2cc(CN[C@H]3CCCC[C@@H]3O)cnc12 (stereo partly drawn) [Example 3, N-[3-({[(1S,2S)-2-hydroxycyclohexyl]amino}methyl)-8-methylquinolin-7-yl]-4-(tetrahydrofuran-2-ylmethoxy)benzamide]	197		
Cc1c(NC(=O)c2ccc(OCC3CCOC3)cc2)ccc2cc(CNC(C)C)cnc12 (stereo not shown) [Example 7, N-(8-methyl-3-{[(1-methylethyl)amino]methyl}quinolin-7-yl)-4-(tetrahydrofuran-3-ylmethoxy)benzamide]	106		
Cc1c(NC(=O)c2ccc(OCC3CCOC3)cc2)ccc2cc(CNC3CCCC3)cnc12 (stereo not shown) [Example 16, N-{3-[(cyclopentylamino)methyl]-8-methylquinolin-7-yl}-4-(tetrahydrofuran-3-ylmethoxy)benzamide]	148 to 149	3.2	2.8
Cc1c(NC(=O)c2ccc(OC[C@H]3CCCO3)cc2)ccc2cc(CNCC(C)(C)C)cnc12 [Example 25, N-(3-{[(2,2-dimethylpropyl)amino]methyl}-8-methylquinolin-7-yl)-4-[(2R)-tetrahydrofuran-2-ylmethoxy]benzamide]	110 to 111	3.5	3.4
Cc1c(NC(=O)c2ccc(OC[C@@H]3CCCO3)cc2)ccc2cc(CNC[C@H]3CCCO3)cnc12 [Example 27, N-[8-methyl-3-({[(2R)-tetrahydrofuran-2-ylmethyl]amino}methyl)quinolin-7-yl]-4-[(2S)-tetrahydrofuran-2-ylmethoxy]benzamide]	92 to 94	7.8	6.3
Cc1c(NC(=O)c2ccc(OC[C@@H]3CCCO3)cc2)ccc2cc(CNC[C@@H]3CCCO3)cnc12 [Example 29, N-[8-methyl-3-({[(2S)-tetrahydrofuran-2-ylmethyl]amino}methyl)quinolin-7-yl]-4-[(2S)-tetrahydrofuran-2-ylmethoxy]benzamide]	93 to 94	4.6	3.2
COC(C)(C)CNCc1cnc2c(C)c(NC(=O)c3ccc(OC[C@@H]4CCCO4)cc3)ccc2c1 [Example 30, N-(3-{[(2-methoxy-2-methylpropyl)amino]methyl}-8-methylquinolin-7-yl)-4-[(2S)-tetrahydrofuran-2-ylmethoxy]benzamide dihydrochloride]		11	8.4
Cc1c(NC(=O)c2ccc(OC[C@@H]3CCCO3)cc2)ccc2cc(CNCC3CCOCC3)cnc12 [Example 32, N-(8-methyl-3-{[(tetrahydro-2H-pyran-4-ylmethyl)amino]methyl}quinolin-7-yl)-4-[(2S)-tetrahydrofuran-2-ylmethoxy]benzamide]	92 to 94	6.4	6
Cc1c(NC(=O)c2ccc(OC[C@@H]3CCCO3)cc2)ccc2cc(CNCC3(C)COC3)cnc12 [Example 34, N-[8-methyl-3-({[(3-methyloxetan-3-yl)methyl]amino}methyl)quinolin-7-yl]-4-[(2S)-tetrahydrofuran-2-ylmethoxy]benzamide]	117 to 119	6.5	5.5
CCNCc1cnc2c(C)c(NC(=O)c3ccc(OC[C@@H]4CCCO4)cc3)ccc2c1 [Example 35, N-{3-[(ethylamino)methyl]-8-methylquinolin-7-yl}-4-[(2S)-tetrahydrofuran-2-ylmethoxy]benzamide]	149 to 151	17	7.1
Cc1c(NC(=O)c2ccc(OC[C@@H]3CCCO3)cc2)ccc2cc(CNC3CCCC3)cnc12 [Example 36, N-{3-[(cyclopentylamino)methyl]-8-methylquinolin-7-yl}-4-[(2S)-tetrahydrofuran-2-ylmethoxy]benzamide]	152 to 153	3	1.7
Cc1c(NC(=O)c2ccc(OC[C@@H]3CCCO3)cc2)ccc2cc(CNCC3CC3)cnc12 [Example 37, N-(3-{[(cyclopropylmethyl)amino]methyl}-8-methylquinolin-7-yl)-4-[(2S)-tetrahydrofuran-2-ylmethoxy]benzamide]	156 to 158	4.1	3
Cc1c(NC(=O)c2ccc(OC[C@@H]3CCCO3)cc2)ccc2cc(CNCC(C)C)cnc12 [Example 38, N-(8-methyl-3-{[(2-methylpropyl)amino]methyl}quinolin-7-yl)-4-[(2S)-tetrahydrofuran-2-ylmethoxy]benzamide]	142 to 143	1.7	1.5
Cc1c(NC(=O)c2ccc(OC[C@@H]3CCCO3)cc2)ccc2cc(CNCC(C)(C)C)cnc12 [Example 39, N-(3-{[(2,2-dimethylpropyl)amino]methyl}-8-methylquinolin-7-yl)-4-[(2S)-tetrahydrofuran-2-ylmethoxy]benzamide]	114 to 116	2	1.8
Cc1c(NC(=O)c2ccc(OC[C@H]3CCCO3)cc2)ccc2cc(CN[C@H]3CC[C@H](O)CC3)cnc12 [Example 40, N-(3-{[(trans-4-hydroxycyclohexyl)amino]methyl}-8-methylquinolin-7-yl)-4-[(2R)-tetrahydrofuran-2-ylmethoxy]benzamide]	182 to 183	13	7.7
Cc1c(NC(=O)c2ccc(OC[C@@H]3CCCO3)cc2)ccc2cc(CNCC3(O)CCCCC3)cnc12 [Example 41, N-[3-({[(1-hydroxycyclohexyl)methyl]amino}methyl)-8-methylquinolin-7-yl]-4-[(2S)-tetrahydrofuran-2-ylmethoxy]benzamide dihydrochloride]		1.6	1.5
CCCNCc1cnc2c(C)c(NC(=O)c3ccc(OC[C@@H]4CCCO4)cc3)ccc2c1 [Example 45, N-{8-methyl-3-[(propylamino)methyl]quinolin-7-yl}-4-[(2S)-tetrahydrofuran-2-ylmethoxy]benzamide]	121 to 122	5.8	3.1
Cc1c(NC(=O)c2ccc(OC[C@@H]3CCCO3)cc2)ccc2cc(CN[C@@H]3CCCC[C@H]3O)cnc12 [Example 46, N-[3-({[(1R,2R)-2-hydroxycyclohexyl]amino}methyl)-8-methylquinolin-7-yl]-4-[(2S)-tetrahydrofuran-2-ylmethoxy]benzamide]	142 to 143	6.5	4.5
Cc1c(NC(=O)c2ccc(OC[C@H]3CCCO3)cc2)ccc2cc(CN[C@H]3CC[C@](C)(O)CC3)cnc12 [Example 51, N-(3-{[(trans-4-hydroxy-4-methylcyclohexyl)amino]methyl}-8-methylquinolin-7-yl)-4-[(2R)-tetrahydrofuran-2-ylmethoxy]benzamide]		5.3	4.1
Cc1c(NC(=O)c2ccc(OC[C@H]3CCCO3)cc2)ccc2cc(CN[C@H]3CC[C@@](C)(O)CC3)cnc12 [Example 53, N-(3-{[(cis-4-hydroxy-4-methylcyclohexyl)amino]methyl}-8-methylquinolin-7-yl)-4-[(2R)-tetrahydrofuran-2-ylmethoxy]benzamide]	163 to 164		
Cc1c(NC(=O)c2ccc(OCC3CCOC3)cc2)ccc2cc(CNCC(C)C)cnc12 (stereo not shown) [Example 59, N-(8-methyl-3-{[(2-methylpropyl)amino]methyl}quinolin-7-yl)-4-(tetrahydrofuran-3-ylmethoxy)benzamide]	132		
Cc1c(NC(=O)c2ccc(OCC3CCOC3)cc2)ccc2cc(CNCC(C)C)cnc12 (stereo not shown) [Example 60, N-(8-methyl-3-{[(2-methylpropyl)amino]methyl}quinolin-7-yl)-4-(tetrahydrofuran-3-ylmethoxy)benzamide]	130 to 131		
Cc1c(NC(=O)c2ccc(OCC3CCOC3)cc2)ccc2cc(CN[C@H]3CC[C@](C)(O)CC3)cnc12 (stereo partly drawn) [Example 64, N-(3-{[(trans-4-hydroxy-4-methylcyclohexyl)amino]methyl}-8-methylquinolin-7-yl)-4-(tetrahydrofuran-3-ylmethoxy)benzamide]	98 to 101		
COC(C)(C)CNCc1cnc2c(C)c(NC(=O)c3ccc(OCC4CCOC4)cc3)ccc2c1 (stereo not shown) [Example 65, N-(3-{[(2-methoxy-2-methylpropyl)amino]methyl}-8-methylquinolin-7-yl)-4-(tetrahydrofuran-3-ylmethoxy)benzamide]	137		
Cc1c(NC(=O)c2ccc(OCC3CCOC3)cc2)ccc2cc(CN3CCC(C)(O)CC3)cnc12 (stereo not shown) [Example 66, N-{3-[(4-hydroxy-4-methylpiperidin-1-yl)methyl]-8-methylquinolin-7-yl}-4-(tetrahydrofuran-3-ylmethoxy)benzamide]	160 to 162		
